What is called EC50 is the midpoint of the concentration-response curve.

This passage reports EC50 results from patent US11787847B2, “Method of identifying malodor modulating compounds” (FIRMENICH SA, priority 2017, dated 2023).

The target in assay [1] is T1, human receptor OR52N5 (Homo sapiens, UniProt Q8NH56).
T1 construct: the human receptors were tagged with a Rho-FLAG® tag combination; expressed in transfected cells
T1 sequence (Q8NH56 1-324): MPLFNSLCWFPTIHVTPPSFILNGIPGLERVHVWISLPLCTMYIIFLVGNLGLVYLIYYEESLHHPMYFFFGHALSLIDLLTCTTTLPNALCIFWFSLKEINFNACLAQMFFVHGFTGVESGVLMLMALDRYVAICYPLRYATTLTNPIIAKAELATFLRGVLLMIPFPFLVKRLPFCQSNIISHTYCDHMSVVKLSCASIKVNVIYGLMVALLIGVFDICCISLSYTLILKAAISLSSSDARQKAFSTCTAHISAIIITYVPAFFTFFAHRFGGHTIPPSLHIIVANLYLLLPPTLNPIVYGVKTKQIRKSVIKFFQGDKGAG
Description: cell-based dose-response, cAMP increase by HTRF, HEK293T cells (endogenous RTP1 activated) co-transfected with human Golf, Rho-FLAG tagged receptor. The conditions noted are these: FIG. 2, Example 2, SEQ ID NO: 24. As to the method: (§1) Functional dose-response experiments were performed to evaluate the level of DMTS activity of the modified cell line expressing individual putative DMTS receptors. Using a cell-based assay, mouse receptor Olfr1193, Olfr1093, Olfr1097, Olrf166, Olfr169, Olfr738 and Olfr742, and human receptor OR4S2 and OR52N5 were tested in an HEK293T cell line wherein the endogenous RTP1 gene has been activated and the odorant receptor chaperone protein was expressed (described in WO2016/201153). The mouse receptor genes were tagged with a Lucy-FLAG®-Rho tag combination and the human receptors were tagged with a Rho-FLAG® tag combination resulting in a tag:receptor fusion protein for the cell based assay. Receptor genes were co-transfected with the canonical olfactory human G-protein alpha subunit Golf gene and were exposed to increasing concentrations of the malodor odorant. Co-expression of the human Golf activates the Gs transduction pathway that leads to an internal cAMP increase upon binding to the appropriate ligand. Odorant-induced activity was detected by measuring the cAMP increase in the cytosol using an Homogeneous Time Resolved Fluorescence (HTRF) based kit (CisBio, cAMP dynamic 2 kit, cat. 62AM4PEJ). […]
On the technique in general: In TR-FRET formats the signal depends on donor and acceptor labels being close together.

Assay [2] concerns the target T2, OR4S2 (Homo sapiens, UniProt Q8NH73).
T2 sequence (Q8NH73 1-311): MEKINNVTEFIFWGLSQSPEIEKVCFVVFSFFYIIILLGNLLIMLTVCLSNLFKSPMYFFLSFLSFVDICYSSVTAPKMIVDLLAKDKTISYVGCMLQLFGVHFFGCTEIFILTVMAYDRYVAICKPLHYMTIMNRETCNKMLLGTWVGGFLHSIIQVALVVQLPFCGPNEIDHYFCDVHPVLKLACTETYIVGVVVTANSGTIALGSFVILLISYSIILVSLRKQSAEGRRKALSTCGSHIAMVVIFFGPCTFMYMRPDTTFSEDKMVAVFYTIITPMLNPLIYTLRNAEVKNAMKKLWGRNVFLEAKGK
The description is as above. Also on record: the human receptors were tagged with a Rho-FLAG® tag combination; expressed in transfected cells. As to the method:
as §1

Assay [3] has as its target T3, human receptor OR11G2 (Homo sapiens, UniProt Q8NGC1).
T3 construct: The receptors were tagged with a FLAG®-Rho tag combination; expressed in transfected cells
T3 sequence (Q8NGC1 35-345 limits assumed): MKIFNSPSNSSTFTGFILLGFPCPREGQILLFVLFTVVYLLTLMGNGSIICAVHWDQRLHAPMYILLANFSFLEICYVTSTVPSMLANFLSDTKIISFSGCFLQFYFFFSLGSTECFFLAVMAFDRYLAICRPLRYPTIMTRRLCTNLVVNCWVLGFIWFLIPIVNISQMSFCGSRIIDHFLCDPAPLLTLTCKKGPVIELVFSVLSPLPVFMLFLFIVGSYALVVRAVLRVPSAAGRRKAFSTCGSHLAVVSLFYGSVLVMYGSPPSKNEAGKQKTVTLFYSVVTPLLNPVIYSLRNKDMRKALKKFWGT
Description: cell-based dose-response, Ca2+ increase (Calcium 5 dye, FLIPR), HEK293T line stably expressing FLAG-Rho tagged receptor with human Gα15. The conditions noted are these: FIG. 3, Example 3, SEQ ID NO: 36, stable HEK293T. As to the method: (§2) Functional dose-response experiments were performed to evaluate the level of DMTS activity of the modified cell lines expressing individual putative DMTS receptors. A cell line stably expressing a human receptor was generated in a HEK293T cell line for each of the following human receptors: OR2L13, OR4C15, OR5AC2, OR8H3, OR11G2 or OR52N2. The receptors were tagged with a FLAG®-Rho tag combination and stably co-expressed with the human G-protein alpha subunit Gals for the cell based assay. Co-expression of the human Gals activates the Gq transduction pathway that leads to an internal Ca^2+ increase upon binding to the appropriate ligand. Receptors were exposed to increasing concentrations of DMTS. Odorant-induced activity was detected by measuring the Ca^2+ increase in the cytosol using a calcium sensitive fluorescent dye (Molecular Devices, Calcium 5 dye, cat. R8186) and measuring the change in Relative Fluorescence Ratio (RFU) using a fluorometric imaging plate reader (Molecular Devices, FLIPR) following odorant exposure. […] A cell line lacking a receptor was used as a control for non-specific activity at high compound concentrations (‘No receptor’). The activity levels are reported by the potency of the DMTS induced-response for each receptor as a measure of the EC50 value.

Assay [4] has as its target T4, human receptor OR52N2 (Homo sapiens, UniProt Q8NGI0).
T4 construct: The receptors were tagged with a FLAG®-Rho tag combination; expressed in transfected cells
T4 sequence (Q8NGI0 1-321): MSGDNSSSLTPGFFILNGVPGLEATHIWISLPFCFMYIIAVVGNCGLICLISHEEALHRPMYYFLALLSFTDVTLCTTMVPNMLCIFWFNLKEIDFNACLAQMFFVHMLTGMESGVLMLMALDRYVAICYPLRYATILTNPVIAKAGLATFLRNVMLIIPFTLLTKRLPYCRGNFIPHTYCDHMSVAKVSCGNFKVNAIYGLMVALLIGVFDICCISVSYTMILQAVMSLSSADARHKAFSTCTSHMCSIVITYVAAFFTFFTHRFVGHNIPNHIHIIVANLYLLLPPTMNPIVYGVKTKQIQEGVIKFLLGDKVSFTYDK
Described as above. The conditions noted are these: FIG. 3, Example 3, SEQ ID NO: 38, stable HEK293T. The procedure: as §2

Molecules are shown by their SMILES.

As to `CSSSC` [DMTS, dimethyl trisulfide], the EC50 in assay [1] worked out at 10 µM; in assay [2] (FIG. 2, Example 2, SEQ ID NO: 42), 2 µM; in assay [2] (FIG. 5, Example 5, SEQ ID NO: 42), 0.325 µM; in assay [3], 12 µM; in assay [4], 5 µM.
